The record followed here is a melting point compilation (Tetko et al.; mined from patent text by program, amines drawn as free bases though some values may be those of a salt).

Structures are written as SMILES.

In turn, `N#Cc1c(N2CCCCC2)cc(-c2ccc3ccccc3c2)c2c1Cc1ccccc1-2` had a melting point of 142 to 144 °C.
To `OCCn1cc(-c2ccc3ncn(Cc4ccc5ncccc5c4)c3n2)cn1` belongs 160 to 163 °C; to `CC(=O)NCC1(c2ccccc2)CCN(CCC(c2ccccc2)(c2ccccc2)c2ccccc2)CC1`, 154 to 167 °C.
To `CCOC(=O)c1cc(Br)c2oc(C)c(C)c2c1` belongs 110 to 111 °C; to `CC(C)CC(=O)Nc1c(C(=O)c2cc(CO)co2)[nH]c2cc(Cl)ccc12`, 200 to 201 °C; to `CC(C)Cc1cc2cc(O)ccc2c(Oc2ccc(/C=C/C(=O)O)cc2)c1-c1ccccc1`, 126 to 128 °C.
To `CN(C)c1ccc(-c2c(N3CCCC3C(=O)OC(C)(C)C)c(=O)c2=O)cc1` (stereo unspecified) belongs 115 °C; to `COc1ccc(-c2nc(O)c(C)s2)cc1`, 149 to 150 °C; to `O=C(OCC1CCC1)c1ncn2c1[C@@H]1CCCN1C(=O)c1c(Cl)cccc1-2`, 204 to 205 °C.
`N#Cc1cc(-c2ccoc2)c2ccc(COc3cc(F)cc(-c4ccc(F)cc4)c3)cc2n1` displayed a melting point of 177 to 180 °C.
The result for `CCCCCCCN1CCCc2cccc(O)c21` reads 33 to 34 °C; that for `O=C1NCCn2c1nc1c2CCCC1`, above 250 °C; that for `CC=C1c2ccccc2CC(=NO)c2ccccc21`, 128 to 131 °C.
`C=C(NC(C)=O)c1ccc(F)cn1` had a melting point of 61 to 62.2 °C.
For `COc1c(OCc2ccc3ccccc3c2)cccc1C(=O)c1nccs1`, the melting point was 100 °C.
To `CCOC=Cc1nc2c(=O)n(Cc3ccccc3)cnc2n1Cc1ccccc1` belongs 167 to 168 °C; to `O=C1c2cc(Cl)ccc2NCN1CCN1CCOCC1`, 82 °C; to `Cc1noc(C2CCCCC2=O)n1` (stereo unspecified), 74 to 76 °C.
The result for `CCOC(=O)c1cnc2cc(CC)ccc2c1O` reads 257 to 260 °C.
The result for `NCC(=O)c1ncn(Cc2ccccc2)c1N` reads 156 to 162 °C; that for `COc1cccc(NC(=O)Nc2ccc(N3CCN(C(=O)Nc4ccc(OCCO)cc4C(F)(F)F)CC3)cc2)c1OC`, 135 to 138 °C; that for `N#CC(=NO)c1c(Cl)cccc1Cl`, 94 to 96 °C.
With `CCCCCc1ccc(-c2c(C(C)C)cc(-c3ccccc3)c(CO)c2C(C)C)nc1`, the melting point fell in the range of 56 to 58 °C.
Molecule `COc1cc2ncnc(N3CCN(C(=O)NCc4cccs4)CC3)c2cc1OC` registered a melting point of 168 to 170 °C.
To `COC(=O)c1cccc(C(=O)c2[nH]c3cc(Cl)ccc3c2N)c1` belongs 187 to 189 °C; to `O=C(NC(=O)c1c(Cl)cccc1Cl)Nc1ccc(C(F)(F)F)cn1`, 228 to 230 °C; to `O=C(CN1CCN(c2ccc(F)cc2)CC1)CN1CCN(c2ccc(F)cc2)CC1`, 106 to 107 °C.
In turn, `Cn1c2ccccc2c2cc(C(=O)O)sc21` gave a melting point of 179 to 180 °C.
To `O=C1c2cc3nnn(CCc4cccc(F)c4)c(=O)c3cc2OC2OCCN12` (stereo unspecified) belongs 191 to 193 °C.
In the case of `Cc1c(O)c(C)c(Br)c(C)c1Br`, the melting point was 144 to 146 °C.
For the molecule `CC(Cn1ccnc1)Cn1cnc2ccc(Br)cc2c1=O` (stereo unspecified), the melting point lay within 159 to 162 °C.
Consider `CC(C)(c1ccccc1)c1cc(C(C)(C)c2ccccc2)c(O)cc1O`, for which the melting point came out at 130 °C.
To `Cc1nnc(-c2ccc3occ(-c4cccc(OC(F)(F)F)c4)c3c2)o1` belongs 110 to 111 °C; to `C=C(c1ccc(C)cc1)c1ccc(N2CCCC2)cc1`, 134 to 136 °C; to `CC(C)(S)CN1C(=O)NC(=O)C1=O`, 168 to 170 °C.
As to `COc1ccc(-c2nn(CC(C)C)c3c(F)cccc23)c(OC)c1`, the melting point lay within 92 to 93 °C.
To `CC(C)Cc1ccc(C(Nc2cccc(C(=O)n3cc(CCCC(=O)O)c4ccccc43)c2)c2ccc(CC(C)C)cc2)cc1` belongs 74.8 °C; to `CC(C)(C)OC(=O)N(CC(=O)O)CC(=O)O`, 135 to 137 °C.
The result for `COC(=O)CN(CC(=O)OC)[C@H]1CC[C@H](Nc2ncc3ncnc(Nc4ccc(F)c(Cl)c4)c3n2)CC1` reads 181 to 184 °C.
The molecule `OCCN1CCN(C(c2ccccc2)(c2ccccc2)c2ccccc2)CC1` yielded a melting point of 82 °C.
In turn, `Cc1cccc(NC(=O)Nc2ccc(-c3c(C(C)C)sc4ncnc(N)c34)cc2)c1` came in with a melting point of 169 to 171 °C.
Regarding `CCCC(=O)Oc1ccc2nc(S(N)(=O)=O)sc2c1`, the melting point lay in the range of 122 to 123 °C.
The result for `COc1cc2ccccc2cc1C(=O)O` reads 130 to 132 °C; that for `COc1cc([N+](=O)[O-])c(O)c(OC)c1OC`, 72 to 73 °C.
The result for `CN(C(CCn1c(=O)cc(Cl)n(C)c1=O)C(=O)NO)S(=O)(=O)c1ccc(Oc2ccccc2)cc1` (stereo unspecified) reads 90 to 93 °C; that for `CSc1ccc(Oc2cccc(C=O)n2)cc1`, 60 to 63 °C; that for `CCOC(=O)C(=O)Nc1cc(NC(=O)NC)ccc1O`, 235 to 236 °C.
The result for `Cc1coc(Cc2ccc([N+](=O)[O-])cc2)n1` reads 67 to 68 °C; that for `Cc1ccc(C)n1-c1cc2[nH]c(=O)c(=O)n(CC(=O)NCc3ccccc3)c2cc1Cl`, 244 °C.
As for `CCNC(=O)c1ccc(Cc2ccccc2)cn1`, the melting point is 77 to 78 °C.
The result for `O=S1CCn2c1nc(-c1ccc(F)cc1)c2-c1ccncc1` (stereo unspecified) reads 229 to 231 °C; that for `CCCCOCCCn1c(CCCC)nc2c(N)nc3cccnc3c21`, 101 to 102 °C; that for `C=CCNC1=NS(=O)(=O)c2ccc(Cl)cc2N1`, 284 to 286 °C.
Molecule `CC(C)(Oc1cccc(OCCCc2cn(-c3ccc(C(F)(F)F)cn3)nc2-c2ccccc2)c1)C(=O)O` returned a melting point of 141 to 142 °C.
To `O=C1C(=C(O)C(F)(F)F)CCc2ccccc21` belongs 48 to 49 °C.
To `O[C@@H]1CN(Cc2ccccc2)C[C@@H]1Oc1cccc(Cl)c1` (relative stereo) belongs 86 to 87.5 °C; to `CN(C)CCCOc1ccccc1C=C1CCc2ccccc2C1=O`, 67 to 69 °C; to `CN1CCC(c2c[nH]c3ccc(NC(=O)c4ccsc4)nc23)CC1`, 123 to 127 °C.
To `Cc1cnc(NCCCNc2ncc(Cc3ccc(C)nc3)c(=O)[nH]2)c(C)c1` belongs 104 to 105 °C; to `CC(=O)OCc1csc(-c2nc3n(c2-c2ccncc2)CCC3)c1`, 126 °C; to `Cc1cccc2c1nc(COc1ccc(Cl)cc1)n2CCC(C)C(=O)O` (stereo unspecified), 149 to 151 °C.
In turn, `CCOC(NC(=O)c1cccc(Cl)c1)C(N)=S` (stereo unspecified) displayed a melting point of 136 to 137 °C.
To `CCOC(=O)C(=CNc1ccnn1-c1ccccc1)C(=O)OCC` belongs 96 to 97 °C.
The result for `COC(=O)CC(Nc1ccccc1OC)c1cc2ccccc2nc1Cl` (stereo unspecified) reads 135 to 137 °C; that for `CNC(=O)c1ccc(Nc2cc(-n3ccc(C(F)(F)F)n3)c3ccccc3n2)cc1`, 250 to 252 °C; that for `CC(=O)Nc1c(Cl)cc(Br)c(C)c1Cl`, 173 to 174 °C.

What is called melting point is the temperature of the solid-liquid transition.
